# Measured values: US20070292908A1, “Method for Detecting Streptococcus Agalactiae Using Alpha-Glucosidase Activity” (BIOMERIEUX, priority 2004, published 2007)
# How the values were obtained:
# Streptococcus agalactiae [1] = test: Detection of Streptococcus agalactiae strains on reaction media containing an α-glucosidase enzymatic substrate; assay type: cell-based; conditions: substrate 0.1 g/l; for intensity (I) of coloration: arbitrary scale 0 to 4
# Method: The reaction media were prepared by mixing heart-brain extract (4.84 g/l; Solabia), meat infusion (1.96 g/l; Solabia), biothione (1 g/l; Solabia), biotrypcase (7.2 g/l; Solabia), sodium carbonate (0.3 g/l; VWR), sodium pyruvate (2 g/l; Fluka), HEPES buffer (0.4 g/l; Sigma), lactalbumin peptone (2 g/l; DMV), glucose (1 g/l; Merck), American agar (2 g/l; Sobigel) and European agar (12 g/l; Roko).
# The media were then poured into a Petri dish for subsequent inoculation with bacterial strains.
# Eight Streptococcus agalactiae strains derived from the applicant's collection, suspended in physiological saline, were inoculated so as to give isolated colonies on each of the media. The dishes were then incubated at 37° C. for 48 hours. The colonies formed are examined visually after 18, 24 and more than 40 hours of incubation. The coloration of these colonies, the growth and also the intensity of this coloration were noted.
# The results are given in table 1 below and are expressed: • in terms of growth (G) with the size being indicated in mm, • in terms of intensity (1) of coloration based on an arbitrary scale ranging from 0 to 4, 0 corresponding to an absence of activity and 4 corresponding to the presence of a very intense coloration, • in terms of color (Co) with T=turquoise, R=pink or red, Gr=green, Mg=magenta, • according to the incubation time in hours (T).
# Streptococcus agalactiae [2] = test: Number of strains detected as a function of the concentration of α-glucosidase substrate; assay type: cell-based; conditions: positive when I≧0.6, 8 strains
# Description: The above protocol was repeated, with the exception that the concentration of enzymatic substrate was varied.
# Table 2 below gives the number of strains detected (considered to be positive when I≧0.6) as a function of the concentration of substrate.
# [3] = strain 0008200, 18 h incubation
# [4] = strain 0008200, 24 h incubation
# [5] = strain 0008200, >40 h incubation
# [6] = strain 0008206, 18 h incubation
# [7] = strain 0008206, 24 h incubation
# [8] = strain 0008206, >40 h incubation
# [9] = strain 0101060, 18 h incubation
# [10] = strain 0101060, 24 h incubation
# [11] = strain 0101060, >40 h incubation
# [12] = strain 7611003, 18 h incubation
# [13] = strain 7611003, 24 h incubation
# [14] = strain 7611003, >40 h incubation
# [15] = strain 7701031, 18 h incubation
# [16] = strain 7701031, 24 h incubation
# [17] = strain 7701031, >40 h incubation
# [18] = strain 7702055, 18 h incubation
# [19] = strain 7702055, 24 h incubation
# [20] = strain 7702055, >40 h incubation
# [21] = strain 8709013, 18 h incubation
# [22] = strain 8709013, 24 h incubation
# [23] = strain 8709013, >40 h incubation
# [24] = strain 8904053, 18 h incubation
# [25] = strain 8904053, 24 h incubation
# [26] = strain 8904053, >40 h incubation
# [27] = substrate 100 mg/l, incubation 24 h
# [28] = substrate 100 mg/l, incubation 48 h
# [29] = substrate 200 mg/l, incubation 24 h
# [30] = substrate 200 mg/l, incubation 48 h
# [31] = substrate 300 mg/l, incubation 24 h
# [32] = substrate 300 mg/l, incubation 48 h
compound,measurement,setting,value
"OC[C@H]1O[C@H](Oc2c[nH]c3cc(Br)ccc23)[C@H](O)[C@@H](O)[C@@H]1O [RedA-alpha-Glu, 6-bromo-3-indolyl-α-D-glucopyranoside]",intensity (I) of coloration,"Streptococcus agalactiae [1]; strain 0008200, 18 h",0.1
same,"growth (G), size",Streptococcus agalactiae [1]; [3],0.7 mm
same,intensity (I) of coloration,"Streptococcus agalactiae [1]; strain 0008200, 24 h",0.3
same,"growth (G), size",Streptococcus agalactiae [1]; [4],0.7 mm
same,intensity (I) of coloration,"Streptococcus agalactiae [1]; strain 0008200, >40 h",1.7
same,"growth (G), size",Streptococcus agalactiae [1]; [5],0.7 mm
same,intensity (I) of coloration,"Streptococcus agalactiae [1]; strain 0008206, 18 h",0.3
same,"growth (G), size",Streptococcus agalactiae [1]; [6],0.7 mm
same,intensity (I) of coloration,"Streptococcus agalactiae [1]; strain 0008206, 24 h",0.5
same,"growth (G), size",Streptococcus agalactiae [1]; [7],0.8 mm
same,intensity (I) of coloration,"Streptococcus agalactiae [1]; strain 0008206, >40 h",2
same,"growth (G), size",Streptococcus agalactiae [1]; [8],1.2 mm
same,intensity (I) of coloration,"Streptococcus agalactiae [1]; strain 0101060, 18 h",0.5
same,"growth (G), size",Streptococcus agalactiae [1]; [9],0.4 mm
same,intensity (I) of coloration,"Streptococcus agalactiae [1]; strain 0101060, 24 h",0.8
same,"growth (G), size",Streptococcus agalactiae [1]; [10],0.5 mm
same,intensity (I) of coloration,"Streptococcus agalactiae [1]; strain 0101060, >40 h",3
same,"growth (G), size",Streptococcus agalactiae [1]; [11],0.7 mm
same,intensity (I) of coloration,"Streptococcus agalactiae [1]; strain 7611003, 18 h",0.5
same,"growth (G), size",Streptococcus agalactiae [1]; [12],1 mm
same,intensity (I) of coloration,"Streptococcus agalactiae [1]; strain 7611003, 24 h",0.8
same,"growth (G), size",Streptococcus agalactiae [1]; [13],1 mm
same,intensity (I) of coloration,"Streptococcus agalactiae [1]; strain 7611003, >40 h",2
same,"growth (G), size",Streptococcus agalactiae [1]; [14],1.3 mm
same,"growth (G), size",Streptococcus agalactiae [1]; [15],0.5 mm
same,"growth (G), size",Streptococcus agalactiae [1]; [16],0.7 mm
same,intensity (I) of coloration,"Streptococcus agalactiae [1]; strain 7701031, >40 h",0.5
same,"growth (G), size",Streptococcus agalactiae [1]; [17],1.2 mm
same,"growth (G), size",Streptococcus agalactiae [1]; [18],0.7 mm
same,intensity (I) of coloration,"Streptococcus agalactiae [1]; strain 7702055, 24 h",0.3
same,"growth (G), size",Streptococcus agalactiae [1]; [19],1 mm
same,intensity (I) of coloration,"Streptococcus agalactiae [1]; strain 7702055, >40 h",2.3
same,"growth (G), size",Streptococcus agalactiae [1]; [20],1.7 mm
same,"growth (G), size",Streptococcus agalactiae [1]; [21],0.5 mm
same,"growth (G), size",Streptococcus agalactiae [1]; [22],0.5 mm
same,intensity (I) of coloration,"Streptococcus agalactiae [1]; strain 8709013, >40 h",0.8
same,"growth (G), size",Streptococcus agalactiae [1]; [23],0.7 mm
same,"growth (G), size",Streptococcus agalactiae [1]; [24],0.7 mm
same,intensity (I) of coloration,"Streptococcus agalactiae [1]; strain 8904053, 24 h",0.3
same,"growth (G), size",Streptococcus agalactiae [1]; [25],0.7 mm
same,intensity (I) of coloration,"Streptococcus agalactiae [1]; strain 8904053, >40 h",1.7
same,"growth (G), size",Streptococcus agalactiae [1]; [26],0.8 mm
same,number of strains detected,Streptococcus agalactiae [2]; [27],1/8
same,number of strains detected,Streptococcus agalactiae [2]; [28],7/8
same,number of strains detected,Streptococcus agalactiae [2]; [29],5/8
same,number of strains detected,Streptococcus agalactiae [2]; [30],8/8
same,number of strains detected,Streptococcus agalactiae [2]; [31],6/8
same,number of strains detected,Streptococcus agalactiae [2]; [32],8/8
5-bromo-6-chloro-3-indolyl-α-D-glucopyranoside [Magenta-alpha-Glu],intensity (I) of coloration,"Streptococcus agalactiae [1]; strain 0008200, 18 h",0.5
same,"growth (G), size",Streptococcus agalactiae [1]; [3],0.5 mm
same,intensity (I) of coloration,"Streptococcus agalactiae [1]; strain 0008200, 24 h",0.8
same,"growth (G), size",Streptococcus agalactiae [1]; [4],0.5 mm
same,intensity (I) of coloration,"Streptococcus agalactiae [1]; strain 0008200, >40 h",3
same,"growth (G), size",Streptococcus agalactiae [1]; [5],0.5 mm
same,intensity (I) of coloration,"Streptococcus agalactiae [1]; strain 0008206, 18 h",0.6
same,"growth (G), size",Streptococcus agalactiae [1]; [6],0.7 mm
same,intensity (I) of coloration,"Streptococcus agalactiae [1]; strain 0008206, 24 h",0.8
same,"growth (G), size",Streptococcus agalactiae [1]; [7],0.7 mm
same,intensity (I) of coloration,"Streptococcus agalactiae [1]; strain 0008206, >40 h",3
same,"growth (G), size",Streptococcus agalactiae [1]; [8],0.7 mm
same,intensity (I) of coloration,"Streptococcus agalactiae [1]; strain 0101060, 18 h",2.7
same,"growth (G), size",Streptococcus agalactiae [1]; [9],0.4 mm
same,intensity (I) of coloration,"Streptococcus agalactiae [1]; strain 0101060, 24 h",2.7
same,"growth (G), size",Streptococcus agalactiae [1]; [10],0.4 mm
same,intensity (I) of coloration,"Streptococcus agalactiae [1]; strain 0101060, >40 h",4
same,"growth (G), size",Streptococcus agalactiae [1]; [11],0.5 mm
same,intensity (I) of coloration,"Streptococcus agalactiae [1]; strain 7611003, 18 h",1
same,"growth (G), size",Streptococcus agalactiae [1]; [12],0.5 mm
same,intensity (I) of coloration,"Streptococcus agalactiae [1]; strain 7611003, 24 h",2
same,"growth (G), size",Streptococcus agalactiae [1]; [13],0.7 mm
same,intensity (I) of coloration,"Streptococcus agalactiae [1]; strain 7611003, >40 h",3
same,"growth (G), size",Streptococcus agalactiae [1]; [14],0.7 mm
same,"growth (G), size",Streptococcus agalactiae [1]; [15],0.5 mm
same,"growth (G), size",Streptococcus agalactiae [1]; [16],0.5 mm
same,intensity (I) of coloration,"Streptococcus agalactiae [1]; strain 7701031, >40 h",2
same,"growth (G), size",Streptococcus agalactiae [1]; [17],0.8 mm
same,intensity (I) of coloration,"Streptococcus agalactiae [1]; strain 7702055, 18 h",0.5
same,"growth (G), size",Streptococcus agalactiae [1]; [18],0.5 mm
same,intensity (I) of coloration,"Streptococcus agalactiae [1]; strain 7702055, 24 h",0.6
same,"growth (G), size",Streptococcus agalactiae [1]; [19],0.8 mm
same,intensity (I) of coloration,"Streptococcus agalactiae [1]; strain 7702055, >40 h",3
same,"growth (G), size",Streptococcus agalactiae [1]; [20],1 mm
same,intensity (I) of coloration,"Streptococcus agalactiae [1]; strain 8709013, 18 h",0.5
same,"growth (G), size",Streptococcus agalactiae [1]; [21],0.4 mm
same,intensity (I) of coloration,"Streptococcus agalactiae [1]; strain 8709013, 24 h",1.3
same,"growth (G), size",Streptococcus agalactiae [1]; [22],0.5 mm
same,intensity (I) of coloration,"Streptococcus agalactiae [1]; strain 8709013, >40 h",2.7
same,"growth (G), size",Streptococcus agalactiae [1]; [23],0.7 mm
same,intensity (I) of coloration,"Streptococcus agalactiae [1]; strain 8904053, 18 h",0.6
same,"growth (G), size",Streptococcus agalactiae [1]; [24],0.7 mm
same,intensity (I) of coloration,"Streptococcus agalactiae [1]; strain 8904053, 24 h",0.6
same,"growth (G), size",Streptococcus agalactiae [1]; [25],0.7 mm
same,intensity (I) of coloration,"Streptococcus agalactiae [1]; strain 8904053, >40 h",3
same,"growth (G), size",Streptococcus agalactiae [1]; [26],0.7 mm
same,number of strains detected,Streptococcus agalactiae [2]; [27],2/8
same,number of strains detected,Streptococcus agalactiae [2]; [28],8/8
same,number of strains detected,Streptococcus agalactiae [2]; [29],7/8
same,number of strains detected,Streptococcus agalactiae [2]; [30],8/8
same,number of strains detected,Streptococcus agalactiae [2]; [31],7/8
same,number of strains detected,Streptococcus agalactiae [2]; [32],8/8
